Assay results taken from patent US9603896B2, “Peptide compounds and methods of production and use thereof” (priority 2012, dated 2017).
Ends that are not written are not given here.

Tests used:
swine skin = assay: Swine full thickness excisional dermal wound model; format: in vivo; settings: for Mean Wound Healing (%): topical 3 mg/ml, 0.20 ml per wound daily; for histology: epidermal resurfacing and maturation vs saline control: day 14 post-wounding; for dermal wound healing vs saline: topically at 3 mg/ml, over 14 days; for Histopathology Results, Mean Angiogenesis / Histopathology Results, Mean Epithelization / Histopathology Results, Mean Granulation / Histopathology Results, Mean Inflammation: wounds harvested day 14, 3 mg/ml topical
Procedure: In this Example, peptide compounds of the presently disclosed and claimed inventive concept(s) were evaluated as to their activity on the dermal wound healing process in a clinically relevant swine full thickness excisional wound model. Three different peptide formulations (Group B, Peptide 95-122 (SEQ ID NO:26); Group C, Peptide 120-146WH (SEQ ID NO:31); and Group D, Peptide 120-146QH-5RMP (SEQ ID NO:33)) were each evaluated at the same concentration (3 mg/ml). Sterile saline served as the control (Group A).
Full thickness excisional wounds were induced on the dorsum of swine (N=3) using a 1.0 cm biopsy punch. Treatments were administered (0.20 ml) to each wound (N=6 wounds per group), and the wounds were dressed with standard occlusive dressing ([…]™, 3M Corporation, St. Paul, Minn.). Treatments were reapplied daily and dressings changed. Clinical wound healing observations and wound area (2 mm) measurements were performed on days 0, 3, 5, 7, 10, and 14 post-wounding. Wound area (2 mm) data were expressed as percentage (%) of wound healing. Animals were terminated on day 14 with wounds harvested and processed for histological evaluation. […] All peptide formulation treatment groups healed faster with greater rate of closure and re-epithelialization over time, as compared to the saline control (Group A).

mouse cornea = assay: In vivo model of corneal wound healing (corneal epithelial abrasion)
Procedure: The in vivo model of wound healing was carried out using a disposable biopsy punch (2 mm, Miltex, York, Pa.) to demarcate the mouse cornea and a 0.5 mm burr using the AlgerBrush II (The Alger Company, Inc., Lago Vista, Tex.) to remove the corneal epithelium. The corneal abrasions were treated at 0 and 16 hours with peptide 95-122 (10^−5 M), peptide 120-146WH (10^−6 M and 10^−8M), peptide 120-146WR ((10^−6 M and 10^−8M), or vehicle control (0.9% sodium chloride, pH 5.5, Baxter, Deerfield, Ill.). Corneal abrasions were visualized using sterile fluorescein sodium ophthalmic strips USP (Fluorets®, Chauvin Laboratory, Aubenas, France) dampened with sterile PBS. Images were taken at 0, 16, and 24 hours immediately following fluorescein staining.
Mice were anesthetized using ketamine (100 mg/kg; Bionichepharma, LLC., St. Lake Forrest, Ill.) and xylazine ([…]; Rompun; Bayer Corp., Shawnee Mission, Kans.), and the right cornea was wounded as follows. A disposable biopsy punch (2 mm, Miltex, York, Pa.) was used to demarcate the mouse cornea. The corneal epithelium was carefully removed within the 2 mm demarcated area with a 0.5 mm burr using the AlgerBrush II (The Alger Company, Inc., Lago Vista, Tex.). The corneal abrasions were treated at 0 and 16 hours with HB-EGF (250 ng/ml), rCAP37 (250 ng/ml), or vehicle control (0.9% sodium chloride, pH 5.5, Baxter, Deerfield, Ill.). Corneal abrasions were visualized using sterile fluorescein sodium ophthalmic strips USP (FLUORETS®, Chauvin Laboratory, Aubenas, France) dampened with sterile PBS. Images were taken at 0, 16, 24, and 48 hours immediately following fluorescein staining using a surgical microscope equipped with a camera (Carl Zeiss OPMI VISU 140, Carl Zeiss Surgical, Inc., Oberkochen, Germany). The areas of the open wound were quantitated using ImageJ software (US National Institutes of Health), and the results were reported as the percentage of wound closure.
Whole mouse eyes were collected for histology at 0, 6, 16, 24, and 48 hours post wounding and were immediately placed in Prefer fixative (Anatech LTD., Battle Creek, Mich.) for 20 minutes before being transferred to 70% ethanol. Tissues were paraffin-embedded and cut at a thickness of 5 μm, mounted on SUPERFROSTPLUS® slides (Statlab Medical Products, Lewisville, Tex.), and subsequently deparaffinized, rehydrated, and washed in deionized water. Sections were stained with hematoxylin (Leica Microsystems, Buffalo Grove, Ill.) and rinsed twice in deionized water before being washed in Blue Buffer (Leica Microsystems). The sections were finally washed in deionized water and 95% ethanol prior to being counterstained with eosin (Leica Microsystems). Sections were dehydrated in ethanol and cleared in xylene.

Sequence	Mean Wound Healing (%) (swine skin; Day 0)	Mean Wound Healing (%) (swine skin; Day 3)	Mean Wound Healing (%) (swine skin; Day 5)	Mean Wound Healing (%) (swine skin; Day 7)	Mean Wound Healing (%) (swine skin; Day 10)	Mean Wound Healing (%) (swine skin; Day 14)	histology: epidermal resurfacing and maturation vs saline control (swine skin)	dermal wound healing vs saline (swine skin)	Histopathology Results, Mean Angiogenesis (swine skin)	Histopathology Results, Mean Epithelization (swine skin)	Histopathology Results, Mean Granulation (swine skin)	Histopathology Results, Mean Inflammation (swine skin)	amount of corneal wound healing vs vehicle-treated (mouse cornea; 10^−8M or 10^−6M at 0 and 16 hours, closure at 16 and 24 hours)	corneal wound healing (wound closure at 16 and 24 hours) vs vehicle (mouse cornea; 10^−5 M at 0 and 16 hours)
GTRCQVAGWGSWHSGGRLSRFPRFVNV [Peptide 120-146WH]	0.0	22.1	35.9	59.7	93.5	97.5	greater extent of epidermal resurfacing and maturation of the epidermis	accelerate dermal wound healing	1.7	3.7	4.0	0.5	significantly greater	
LDREANLTSSVTILPLPLQNATVEAGTR (listed as Homo sapiens) [Peptide 95-122]	0.0					100.0	greater extent of epidermal resurfacing and maturation of the epidermis	accelerate dermal wound healing	2.3	4.0	4.0	0.5		promotes corneal wound healing
